Results reported in patent US12128132B2, “Drug delivery formulations” (MedinCell S.A., priority 2019, dated 2024).

Assay: Stability of risperidone stock solution
Assay type: physicochemical
Settings: 200 μg/mL in acetonitrile/H2O (50/50 v/v), stored at +2-8° C.
Experimental: Starting from this mother solution, calibration standards were prepared by dilution in the same sample solvent mixture as above. Six dilutions were performed to obtain calibration standards of 1, 5, 10, 25, 50, 100 and 200 μg/mL.

## Cc1nc2n(c(=O)c1CCN1CCC(c3noc4cc(F)ccc34)CC1)CCCC2 [risperidone]
  stability of stock solution: ≥ 5 months
